Experimental data published in the kinase profiling compilation of Christmann-Franck et al. (2016).

Tests used:
Experiment in all cases: radiometric filter-binding kinase assay, Kinase HotSpot
Conditions in all cases: compound 0.5 µM; ATP 10 µM
STK17A (human) = STK17A (human) (UniProt Q9UEE5)
PAK4 (human) = PAK4 (human) (UniProt O96013)
DMPK (human) = DMPK (human) (UniProt Q09013)
AXL (human) = AXL (human) (UniProt P30530)
NLK (human) = NLK (human) (UniProt Q9UBE8)
PHKG2 (human) = PHKG2 (human) (UniProt P15735)
CDC42BPA (human) = CDC42BPA (human) (UniProt Q5VT25)
MELK (human) = MELK (human) (UniProt Q14680)
PIM1 (human) = PIM1 (human) (UniProt P11309)
HIPK4 (human) = HIPK4 (human) (UniProt Q8NE63)
TXK (human) = TXK (human) (UniProt P42681)
ULK1 (human) = ULK1 (human) (UniProt O75385)
EPHA4 (human) = EPHA4 (human) (UniProt P54764)
PAK6 (human) = PAK6 (human) (UniProt Q9NQU5)
RPS6KB2 (human) = RPS6KB2 (human) (UniProt Q9UBS0)
CAMK2A (human) = CAMK2A (human) (UniProt Q9UQM7)
EGFR (human) = EGFR (human) (UniProt P00533)
CDK6 CCND3 (human) = CDK6 CCND3 (human) (UniProt P30281+Q00534)
MKNK2 (human) = MKNK2 (human) (UniProt Q9HBH9)
SRPK2 (human) = SRPK2 (human) (UniProt P78362)
CLK2 (human) = CLK2 (human) (UniProt P49760)
BTK (human) = BTK (human) (UniProt Q06187)
CHEK2 (human) = CHEK2 (human) (UniProt O96017)
NUAK2 (human) = NUAK2 (human) (UniProt Q9H093)
VRK1 (human) = VRK1 (human) (UniProt Q99986)
PKN2 (human) = PKN2 (human) (UniProt Q16513)
DYRK2 (human) = DYRK2 (human) (UniProt Q92630)
MATK (human) = MATK (human) (UniProt P42679)
AURKB (human) = AURKB (human) (UniProt Q96GD4)
ZAP70 (human) = ZAP70 (human) (UniProt P43403)
TAOK3 (human) = TAOK3 (human) (UniProt Q9H2K8)
KIT (human) = KIT (human) (UniProt P10721)
GRK7 (human) = GRK7 (human) (UniProt Q8WTQ7)
ALK (human) = ALK (human) (UniProt Q9UM73)
MYLK (human) = MYLK (human) (UniProt Q15746)
STK3 (human) = STK3 (human) (UniProt Q13188)
BRAF (human) = BRAF (human) (UniProt P15056)
RPS6KA3 KD1 KD2 (human) = RPS6KA3 KD1 KD2 (human) (UniProt P51812)
GSG2 (human) = GSG2 (human) (UniProt Q8TF76)
MAPK14 (human) = MAPK14 (human) (UniProt Q16539)
CDK6 CCND1 (human) = CDK6 CCND1 (human) (UniProt Q00534+P24385)

Sequence of SRPK2 (human) (P78362 whole entry, looked up): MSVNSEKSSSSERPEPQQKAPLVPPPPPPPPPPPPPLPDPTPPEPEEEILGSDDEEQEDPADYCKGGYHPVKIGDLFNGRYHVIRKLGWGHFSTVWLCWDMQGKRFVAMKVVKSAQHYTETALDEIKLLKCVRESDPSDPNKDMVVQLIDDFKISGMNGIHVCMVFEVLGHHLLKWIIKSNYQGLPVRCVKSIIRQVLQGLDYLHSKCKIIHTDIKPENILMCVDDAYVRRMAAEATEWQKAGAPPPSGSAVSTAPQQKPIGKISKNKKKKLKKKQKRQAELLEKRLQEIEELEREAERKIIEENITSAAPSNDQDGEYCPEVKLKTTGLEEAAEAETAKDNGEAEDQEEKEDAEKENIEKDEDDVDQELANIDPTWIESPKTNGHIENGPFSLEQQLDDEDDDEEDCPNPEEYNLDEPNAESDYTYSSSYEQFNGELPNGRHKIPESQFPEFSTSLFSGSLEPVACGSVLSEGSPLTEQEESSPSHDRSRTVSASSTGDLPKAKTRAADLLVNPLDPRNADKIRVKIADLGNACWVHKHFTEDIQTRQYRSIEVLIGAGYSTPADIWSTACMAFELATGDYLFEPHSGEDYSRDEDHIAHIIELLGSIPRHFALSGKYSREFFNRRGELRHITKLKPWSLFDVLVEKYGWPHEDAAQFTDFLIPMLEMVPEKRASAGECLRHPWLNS
Sequence of AXL (human) (P30530 whole entry, looked up): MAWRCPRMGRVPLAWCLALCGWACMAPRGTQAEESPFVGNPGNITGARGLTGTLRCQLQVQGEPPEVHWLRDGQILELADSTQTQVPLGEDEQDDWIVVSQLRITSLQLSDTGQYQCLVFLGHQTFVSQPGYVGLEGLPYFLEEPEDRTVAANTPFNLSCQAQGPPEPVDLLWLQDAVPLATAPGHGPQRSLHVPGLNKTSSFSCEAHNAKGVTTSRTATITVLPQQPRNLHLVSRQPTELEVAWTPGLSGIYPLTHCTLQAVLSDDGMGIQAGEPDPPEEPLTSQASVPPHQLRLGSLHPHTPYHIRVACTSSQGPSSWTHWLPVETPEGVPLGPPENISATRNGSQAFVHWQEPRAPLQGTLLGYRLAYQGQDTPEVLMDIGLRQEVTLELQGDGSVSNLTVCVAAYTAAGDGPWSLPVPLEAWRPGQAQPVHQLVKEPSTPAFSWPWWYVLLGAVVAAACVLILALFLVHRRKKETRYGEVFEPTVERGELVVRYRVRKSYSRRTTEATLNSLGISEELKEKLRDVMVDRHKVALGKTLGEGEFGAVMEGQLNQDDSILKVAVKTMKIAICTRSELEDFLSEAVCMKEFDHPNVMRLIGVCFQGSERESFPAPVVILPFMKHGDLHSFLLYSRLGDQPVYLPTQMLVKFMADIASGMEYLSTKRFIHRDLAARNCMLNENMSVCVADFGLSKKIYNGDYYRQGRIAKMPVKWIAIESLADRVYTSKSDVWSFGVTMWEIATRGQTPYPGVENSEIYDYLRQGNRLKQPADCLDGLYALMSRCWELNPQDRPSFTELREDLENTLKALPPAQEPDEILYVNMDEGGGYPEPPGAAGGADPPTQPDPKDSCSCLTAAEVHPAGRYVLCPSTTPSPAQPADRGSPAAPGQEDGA
Sequence of GSG2 (human) (Q8TF76 whole entry, looked up): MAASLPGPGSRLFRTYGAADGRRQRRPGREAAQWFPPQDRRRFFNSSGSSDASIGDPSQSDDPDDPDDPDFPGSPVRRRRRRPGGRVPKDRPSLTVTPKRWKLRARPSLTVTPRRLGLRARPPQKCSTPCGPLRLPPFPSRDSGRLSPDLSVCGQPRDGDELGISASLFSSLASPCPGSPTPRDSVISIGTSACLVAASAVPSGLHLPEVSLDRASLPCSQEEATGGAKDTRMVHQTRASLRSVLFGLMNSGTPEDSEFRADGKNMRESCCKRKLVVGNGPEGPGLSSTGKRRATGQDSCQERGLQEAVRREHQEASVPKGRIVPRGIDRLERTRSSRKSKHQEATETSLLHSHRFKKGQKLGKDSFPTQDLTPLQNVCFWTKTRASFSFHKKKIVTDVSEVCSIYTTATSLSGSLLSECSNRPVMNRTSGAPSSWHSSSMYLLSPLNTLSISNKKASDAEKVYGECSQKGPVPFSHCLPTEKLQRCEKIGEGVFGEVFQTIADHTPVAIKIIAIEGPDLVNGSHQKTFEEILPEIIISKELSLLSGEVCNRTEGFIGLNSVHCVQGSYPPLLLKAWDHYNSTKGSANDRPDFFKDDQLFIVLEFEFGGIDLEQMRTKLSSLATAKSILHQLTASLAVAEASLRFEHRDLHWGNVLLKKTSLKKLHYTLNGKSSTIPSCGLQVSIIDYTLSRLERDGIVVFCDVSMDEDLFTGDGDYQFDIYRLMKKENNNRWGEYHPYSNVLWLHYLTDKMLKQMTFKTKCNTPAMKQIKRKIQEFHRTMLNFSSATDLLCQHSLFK
Sequence of AURKB (human) (Q96GD4 whole entry, looked up): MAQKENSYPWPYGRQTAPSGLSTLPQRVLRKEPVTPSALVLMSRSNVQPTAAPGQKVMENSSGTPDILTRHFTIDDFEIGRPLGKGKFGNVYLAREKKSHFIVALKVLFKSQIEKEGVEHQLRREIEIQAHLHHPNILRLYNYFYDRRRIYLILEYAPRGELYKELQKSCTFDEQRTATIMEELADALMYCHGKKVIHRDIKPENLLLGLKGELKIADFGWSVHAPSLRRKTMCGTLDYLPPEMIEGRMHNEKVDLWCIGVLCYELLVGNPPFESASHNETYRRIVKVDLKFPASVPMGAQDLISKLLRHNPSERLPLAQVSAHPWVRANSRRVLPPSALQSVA
Sequence of MAPK14 (human) (Q16539 whole entry, looked up): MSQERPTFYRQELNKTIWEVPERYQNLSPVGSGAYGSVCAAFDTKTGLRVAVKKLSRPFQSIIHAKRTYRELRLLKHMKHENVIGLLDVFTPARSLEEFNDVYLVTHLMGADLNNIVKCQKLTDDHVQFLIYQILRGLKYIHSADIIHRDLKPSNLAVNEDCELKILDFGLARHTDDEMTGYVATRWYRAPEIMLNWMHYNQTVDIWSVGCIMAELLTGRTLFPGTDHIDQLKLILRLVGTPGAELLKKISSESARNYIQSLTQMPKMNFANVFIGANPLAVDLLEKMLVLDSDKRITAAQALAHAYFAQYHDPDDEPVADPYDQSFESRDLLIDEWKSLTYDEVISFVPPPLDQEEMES
Sequence of CHEK2 (human) (O96017 whole entry, looked up): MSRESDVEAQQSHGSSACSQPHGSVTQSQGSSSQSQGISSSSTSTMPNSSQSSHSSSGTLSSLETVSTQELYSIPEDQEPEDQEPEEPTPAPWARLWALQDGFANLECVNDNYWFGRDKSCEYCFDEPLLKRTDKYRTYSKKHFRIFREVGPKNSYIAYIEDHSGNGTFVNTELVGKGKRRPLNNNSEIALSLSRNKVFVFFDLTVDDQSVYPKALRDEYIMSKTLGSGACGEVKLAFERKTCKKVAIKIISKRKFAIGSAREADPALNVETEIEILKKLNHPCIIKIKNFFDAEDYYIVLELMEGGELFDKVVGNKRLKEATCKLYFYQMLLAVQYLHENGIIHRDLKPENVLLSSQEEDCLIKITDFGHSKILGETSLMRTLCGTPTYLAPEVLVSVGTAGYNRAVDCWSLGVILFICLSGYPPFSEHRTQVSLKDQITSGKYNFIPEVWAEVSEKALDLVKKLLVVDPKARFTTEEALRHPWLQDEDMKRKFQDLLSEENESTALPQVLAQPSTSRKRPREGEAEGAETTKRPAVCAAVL
Sequence of PHKG2 (human) (P15735 whole entry, looked up): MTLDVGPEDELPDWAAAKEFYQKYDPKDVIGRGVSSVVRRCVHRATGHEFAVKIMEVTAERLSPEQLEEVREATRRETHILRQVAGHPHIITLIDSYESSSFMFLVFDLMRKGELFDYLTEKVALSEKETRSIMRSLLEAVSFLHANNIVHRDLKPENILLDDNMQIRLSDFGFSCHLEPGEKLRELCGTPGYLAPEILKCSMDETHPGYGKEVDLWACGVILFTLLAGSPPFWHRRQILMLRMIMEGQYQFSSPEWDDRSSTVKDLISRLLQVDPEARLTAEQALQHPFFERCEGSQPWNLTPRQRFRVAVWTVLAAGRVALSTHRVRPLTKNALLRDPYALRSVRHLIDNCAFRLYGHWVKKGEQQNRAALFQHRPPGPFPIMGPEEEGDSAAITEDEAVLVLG
Sequence of DMPK (human) (Q09013 whole entry, looked up): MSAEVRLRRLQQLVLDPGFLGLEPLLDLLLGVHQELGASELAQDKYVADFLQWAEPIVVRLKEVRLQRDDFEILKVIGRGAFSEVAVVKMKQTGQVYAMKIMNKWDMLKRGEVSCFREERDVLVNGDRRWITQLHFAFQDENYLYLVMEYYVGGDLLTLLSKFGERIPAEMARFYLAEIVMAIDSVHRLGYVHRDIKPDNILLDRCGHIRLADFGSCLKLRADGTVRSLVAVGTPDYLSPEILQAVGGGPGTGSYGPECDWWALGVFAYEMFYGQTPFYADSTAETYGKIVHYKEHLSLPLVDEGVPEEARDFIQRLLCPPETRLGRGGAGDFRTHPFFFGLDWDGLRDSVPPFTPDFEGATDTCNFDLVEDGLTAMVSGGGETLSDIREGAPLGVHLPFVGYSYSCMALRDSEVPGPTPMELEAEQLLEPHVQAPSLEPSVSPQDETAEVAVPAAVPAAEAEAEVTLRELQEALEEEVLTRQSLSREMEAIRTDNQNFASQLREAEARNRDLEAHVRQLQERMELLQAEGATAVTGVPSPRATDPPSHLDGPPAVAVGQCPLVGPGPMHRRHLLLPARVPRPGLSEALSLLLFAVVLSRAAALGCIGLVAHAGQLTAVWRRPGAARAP
Sequence of PIM1 (human) (P11309 whole entry, looked up): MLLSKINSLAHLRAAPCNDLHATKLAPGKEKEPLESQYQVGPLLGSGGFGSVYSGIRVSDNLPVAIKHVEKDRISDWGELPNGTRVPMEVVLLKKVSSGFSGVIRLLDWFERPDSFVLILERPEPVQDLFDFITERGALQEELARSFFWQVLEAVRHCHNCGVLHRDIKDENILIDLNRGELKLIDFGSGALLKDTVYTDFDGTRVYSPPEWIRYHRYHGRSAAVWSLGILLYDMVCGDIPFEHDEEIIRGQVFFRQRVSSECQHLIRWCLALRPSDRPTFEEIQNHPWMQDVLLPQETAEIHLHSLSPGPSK

## CC[n+]1c(/C=C/N(C)c2ccccc2)n(-c2ccccc2)c2ccc(-c3nc4ccccc4s3)cc21
STK17A (human)
  residual activity: 96.9%
PAK4 (human)
  residual activity: 109%
DMPK (human)
  residual activity: 93.9%
AXL (human)
  residual activity: 101%
NLK (human)
  residual activity: 105%
PHKG2 (human)
  residual activity: 102%
CDC42BPA (human)
  residual activity: 102%
MELK (human)
  residual activity: 93.4%
PIM1 (human)
  residual activity: 102%
HIPK4 (human)
  residual activity: 102%
TXK (human)
  residual activity: 107%
ULK1 (human)
  residual activity: 90.9%
EPHA4 (human)
  residual activity: 91.9%
PAK6 (human)
  residual activity: 95.5%
RPS6KB2 (human)
  residual activity: 93.2%
CAMK2A (human)
  residual activity: 103%
EGFR (human)
  residual activity: 103%
CDK6 CCND3 (human)
  residual activity: 92.2%
MKNK2 (human)
  residual activity: 97.4%
SRPK2 (human)
  residual activity: 105%
CLK2 (human)
  residual activity: 98.4%
BTK (human)
  residual activity: 91.6%
CHEK2 (human)
  residual activity: 105%
NUAK2 (human)
  residual activity: 93.3%
VRK1 (human)
  residual activity: 90.9%
PKN2 (human)
  residual activity: 79.2%
DYRK2 (human)
  residual activity: 105%
MATK (human)
  residual activity: 96.4%
AURKB (human)
  residual activity: 93.9%
ZAP70 (human)
  residual activity: 95.5%
TAOK3 (human)
  residual activity: 116%
KIT (human)
  residual activity: 104%
GRK7 (human)
  residual activity: 100%
ALK (human)
  residual activity: 99.1%
MYLK (human)
  residual activity: 98.4%
STK3 (human)
  residual activity: 98.9%
BRAF (human)
  residual activity: 100%
RPS6KA3 KD1 KD2 (human)
  residual activity: 109%
GSG2 (human)
  residual activity: 110%
MAPK14 (human)
  residual activity: 94.9%
CDK6 CCND1 (human)
  residual activity: 103%

## COc1ccc(COc2ccc(Cc3cnc(N)nc3N)cc2OC)cc1
STK17A (human)
  residual activity: 102%
PAK4 (human)
  residual activity: 101%
DMPK (human)
  residual activity: 101%
AXL (human)
  residual activity: 96.4%
NLK (human)
  residual activity: 105%
PHKG2 (human)
  residual activity: 106%
CDC42BPA (human)
  residual activity: 94.4%
MELK (human)
  residual activity: 102%
PIM1 (human)
  residual activity: 104%
HIPK4 (human)
  residual activity: 97.7%
TXK (human)
  residual activity: 101%
ULK1 (human)
  residual activity: 99.7%
EPHA4 (human)
  residual activity: 105%
PAK6 (human)
  residual activity: 94.9%
RPS6KB2 (human)
  residual activity: 100%
CAMK2A (human)
  residual activity: 105%
EGFR (human)
  residual activity: 96.9%
CDK6 CCND3 (human)
  residual activity: 94.5%
MKNK2 (human)
  residual activity: 90.6%
SRPK2 (human)
  residual activity: 87.4%
CLK2 (human)
  residual activity: 94.3%
BTK (human)
  residual activity: 104%
CHEK2 (human)
  residual activity: 107%
NUAK2 (human)
  residual activity: 98.1%
VRK1 (human)
  residual activity: 91.4%
PKN2 (human)
  residual activity: 90.9%
DYRK2 (human)
  residual activity: 105%
MATK (human)
  residual activity: 94.8%
AURKB (human)
  residual activity: 104%
ZAP70 (human)
  residual activity: 94.3%
TAOK3 (human)
  residual activity: 102%
KIT (human)
  residual activity: 106%
GRK7 (human)
  residual activity: 104%
ALK (human)
  residual activity: 97.4%
MYLK (human)
  residual activity: 95.7%
STK3 (human)
  residual activity: 98.4%
BRAF (human)
  residual activity: 99%
RPS6KA3 KD1 KD2 (human)
  residual activity: 105%
GSG2 (human)
  residual activity: 97.7%
MAPK14 (human)
  residual activity: 106%
CDK6 CCND1 (human)
  residual activity: 101%

## O=C(Nc1cccc(Nc2nccc(Nc3cccc(C(F)(F)F)c3)n2)c1)C1CC1
STK17A (human)
  residual activity: 97.6%
PAK4 (human)
  residual activity: 87.4%
DMPK (human)
  residual activity: 101%
AXL (human)
  residual activity: 104%
NLK (human)
  residual activity: 101%
PHKG2 (human)
  residual activity: 107%
CDC42BPA (human)
  residual activity: 100%
MELK (human)
  residual activity: 101%
PIM1 (human)
  residual activity: 103%
HIPK4 (human)
  residual activity: 111%
TXK (human)
  residual activity: 90.2%
ULK1 (human)
  residual activity: 105%
EPHA4 (human)
  residual activity: 81%
PAK6 (human)
  residual activity: 100%
RPS6KB2 (human)
  residual activity: 96%
CAMK2A (human)
  residual activity: 98%
EGFR (human)
  residual activity: 87.6%
CDK6 CCND3 (human)
  residual activity: 98.5%
MKNK2 (human)
  residual activity: 91.3%
SRPK2 (human)
  residual activity: 104%
CLK2 (human)
  residual activity: 87.6%
BTK (human)
  residual activity: 83.7%
CHEK2 (human)
  residual activity: 107%
NUAK2 (human)
  residual activity: 94.3%
VRK1 (human)
  residual activity: 88.2%
PKN2 (human)
  residual activity: 89.5%
DYRK2 (human)
  residual activity: 106%
MATK (human)
  residual activity: 101%
AURKB (human)
  residual activity: 72.8%
ZAP70 (human)
  residual activity: 126%
TAOK3 (human)
  residual activity: 110%
KIT (human)
  residual activity: 86.1%
GRK7 (human)
  residual activity: 101%
ALK (human)
  residual activity: 99.8%
MYLK (human)
  residual activity: 90%
STK3 (human)
  residual activity: 96%
BRAF (human)
  residual activity: 104%
RPS6KA3 KD1 KD2 (human)
  residual activity: 100%
GSG2 (human)
  residual activity: 101%
MAPK14 (human)
  residual activity: 91.5%
CDK6 CCND1 (human)
  residual activity: 93.4%
